ChEMBL document CHEMBL4342436, “Artemisia: a promising plant for the treatment of cancer” (Bioorg Med Chem, 2020)
pIC50: −log10 of the molar value. Values after ≈ are worked out from the molar mass of the structure shown.

What was measured:
K562 [1] = assay: Cytotoxicity against human K562 cells; format: functional, cell-based
[2] = Cytotoxicity against human 95-D cells by SRB assay; format: functional, cell-based
HL-60 = assay: Cytotoxicity against human HL60 cells; format: functional, cell-based
K562 [3] = assay: Antiproliferative activity against human K562 cells assessed as cell viability at 75 uM after 48 hrs relative to control; format: functional; conditions: K562, 48 h, read-out: Activity
K562 [4] = assay: Cytotoxicity against human K562 cells assessed as cell viability at 75 uM after by MTT assay relative to control; format: functional; conditions: read-out: Activity
[5] = Cytotoxicity against mouse Meth-A cells by MTT assay; format: functional; conditions: read-out: ED50 (the source's name)
BGC-823 [6] = assay: Cytotoxicity against human BGC823 cells after 72 hrs by MTT assay; format: functional, cell-based; conditions: BGC-823, 72 h
A549 [7] = assay: Cytotoxicity against human A549 cells after 72 hrs by MTT assay; format: functional, cell-based; conditions: A549, 72 h
HCT-8 [8] = assay: Cytotoxicity against human HCT8 cells after 72 hrs by MTT assay; format: functional, cell-based; conditions: HCT-8, 72 h
SW-620 = assay: Antitumour activity against human SW620 cells xenografted in nude mouse assessed as inhibition of tumour growth at 50 mg/kg, ip for 17 days relative to control; format: functional; conditions: SW-620, ip, 408 h, read-out: TGI
NCI-H23 = assay: Antitumour activity against human NCI-H23 cells xenografted in nude mouse assessed as inhibition of tumour growth at 50 mg/kg, ip for 17 days relative to control; format: functional; conditions: 408 h, read-out: TGI
SGC-7901 = assay: Cytotoxicity against human SGC7901 cells by MTT assay; format: functional, cell-based
SMMC-7721 = assay: Cytotoxicity against human SMMC7721 cells by MTT assay; format: functional, cell-based
A549 [9] = assay: Cytotoxicity against human A549 cells; format: functional, cell-based
BGC-823 [10] = assay: Cytotoxicity against human BGC823 cells; format: functional, cell-based
HCT-8 [11] = assay: Cytotoxicity against human HCT8 cells; format: functional, cell-based
A549 [12] = assay: Cytotoxicity against human A549 cells assessed as reduction in cell viability by CCK8 assay; format: functional, cell-based
HepG2 = assay: Cytotoxicity against human HepG2 cells assessed as reduction in cell viability by CCK8 assay; format: functional, cell-based
HCT-116 = assay: Growth inhibition of human HCT116 cells assessed as reduction in cell viability at 15 uM by MTT assay relative to control; format: functional; conditions: read-out: GI
OVCAR-3 = assay: Growth inhibition of human OVCAR3 cells assessed as reduction in cell viability at 15 uM by MTT assay relative to control; format: functional; conditions: read-out: GI
IGROV-1 = assay: Growth inhibition of human IGROV1 cells assessed as reduction in cell viability at 15 uM by MTT assay relative to control; format: functional; conditions: read-out: GI

## C=C1CCC(O)C2(C)CCC3C(C)C(=O)OC3C12O (stereo unspecified)
K562 [1]
  pIC50: 4.65
[2]
  pIC50: 4.95
HL-60
  pIC50: 4.15

## C[C@@H]1C(=O)O[C@H]2C1CC[C@@]1(C)[C@H](O)CC[C@@]13C[C@]2(O)OO3 (stereo partly specified)
K562 [3]
  viability at 75 µM: 40%
K562 [4]
  viability at 75 µM: 40%

## CC(C)C(=O)CC[C@@H](C)[C@H]1CC[C@@]2(C)[C@@H]3CC[C@H]4C(C)(C)[C@@H](O)CC[C@@]45C[C@@]35CC[C@]12C
[5]
  EC50: 4 to 10 µg/mL (≈ 9.03 to 22.6 µM)

## CC#CC#CC1=C(CCCCO)C(O)C(O)C1=O (stereo unspecified)
BGC-823 [6]
  pIC50: 5.96
A549 [7]
  pIC50: 5.12
HCT-8 [8]
  pIC50: 5.34

## C=C1C(=O)O[C@@H]2[C@@H]3[C@@]4(C=C[C@@]3(C)[C@@]3(C4)C(=O)O[C@@H]4[C@H]5C(C)=CC(=O)C5=C(C)C[C@H](OC(=O)/C(C)=C\C)[C@H]43)[C@](C)(O)CC[C@@H]12
SW-620
  inhibition in vivo at 50 mg/kg: 39.5%
NCI-H23
  inhibition in vivo at 50 mg/kg: 30.3%

## CC1=CC2O[C@@H]3C[C@H]4OC(=O)/C=C\CC[C@]56OCCC7(OC7C(=O)OC[C@@]2(CC1)[C@]4(C)[C@]31CO1)[C@H]5OC(=O)[C@H]6O (stereo partly specified)
SGC-7901
  IC50: 0.26 µg/mL (≈ 0.465 µM)
SMMC-7721
  IC50: 10.54 µg/mL (≈ 18.9 µM)

## CC(=O)OCC1=C2CC[C@@]3(C)[C@H](O)CC(OC(C)=O)=C(C)[C@@H]3[C@H]2OC1=O
A549 [9]
  pIC50: 5.26
BGC-823 [10]
  pIC50: 5.57
HCT-8 [11]
  pIC50: 5.42

## C=C1C(=O)O[C@@H]2[C@@H]3C4(C=C[C@@]3(C)[C@]3(C4)C(=O)O[C@@H]4[C@H]5C(C)=CC(=O)C5=C(C)C[C@H](OC(C)=O)[C@H]43)[C@@](C)(OC(C)=O)CC[C@@H]12
A549 [12]
  pIC50: 5.27 to 6.22
HepG2
  pIC50: 5.27 to 6.22

## COc1cc2oc(-c3ccc(O)c(O)c3)cc(=O)c2c(O)c1OC [CIRSILIOL]
HCT-116
  inhibition of growth at 15 µM: 40.9%
OVCAR-3
  inhibition of growth at 15 µM: 53.7%
IGROV-1
  inhibition of growth at 15 µM: 48.8%
